From ChEMBL document CHEMBL6177938, “Semisynthetic phytochemicals in cancer treatment: a medicinal chemistry perspective” (RSC Med Chem, 2024)
Blank lines part the entries; values can stand above or below the compound they belong to.

Legend:
[1] = tested on: KYSE-270; experiment: Cytotoxicity against human KYSE-270 cells assessed as reduction in cell viability incubated for 72 hrs by MTS assay; type: functional, cell-based; conditions: KYSE-270, 72 h
[2] = tested on: KYSE-70 cell line; experiment: Cytotoxicity against human KYSE-70 cells assessed as reduction in cell viability incubated for 72 hrs by MTS assay; type: functional, cell-based; conditions: KYSE-70, 72 h
[3] = tested on: MCF7; experiment: Cytotoxicity against human MCF7 cells; type: functional, cell-based
[4] = tested on: HepG2; experiment: Cytotoxicity against human HepG2 cells; type: functional, cell-based
[5] = tested on: MCF7; experiment: Cytotoxicity against human MCF7 cells assessed as reduction in cell growth incubated for 72 hrs by MTT assay; type: functional, cell-based; conditions: MCF7, 72 h
[6] = tested on: HCT-116; experiment: Antiproliferative activity against human HCT-116 cells assessed as reduction in cell viability incubated for 24 hrs by MTT assay; type: functional, cell-based; conditions: HCT-116, 24 h
[7] = tested on: HCT-116; experiment: Cytotoxicity against human HCT-116 cells assessed as reduction in cell viability incubated for 48 hrs by SRB assay; type: functional, cell-based; conditions: HCT-116, 48 h
[8] = tested on: MeWo; experiment: Antiproliferative activity against human MeWo cells assessed as reduction in cell growth incubated for 48 hrs by MTT assay; type: functional, cell-based
[9] = tested on: A-375; experiment: Antiproliferative activity against human A-375 cells assessed as reduction in cell growth incubated for 48 hrs by MTT assay; type: functional, cell-based; conditions: A-375, 48 h
[10] = tested on: MCF7; experiment: Antiproliferative activity against human MCF7 cells assessed as reduction in cell viability measured for 48 hrs by WST-1 assay; type: functional, cell-based; conditions: MCF7, 48 h
[11] = tested on: MOLT-4; experiment: Antiproliferative activity against human MOLT-4 cells assessed as reduction in cell viability measured for 48 hrs by WST-1 assay; type: functional, cell-based; conditions: MOLT-4, 48 h
[12] = tested on: HT-29; experiment: Antiproliferative activity against human HT-29 cells assessed as reduction in cell viability measured for 48 hrs by WST-1 assay; type: functional, cell-based; conditions: HT-29, 48 h
[13] = tested on: A549; experiment: Antiproliferative activity against human A549 cells assessed as reduction in cell viability measured for 48 hrs by WST-1 assay; type: functional, cell-based; conditions: A549, 48 h
[14] = tested on: HeLa; experiment: Antiproliferative activity against human Hela cells assessed as reduction in cell viability measured for 48 hrs by WST-1 assay; type: functional, cell-based
[15] = tested on: MCF7; experiment: Inhibition of colony formation in human MCF7 cells at 100 microM measured after 72 hrs by crystal violet staining based analysis relative to control; type: functional
[16] = tested on: MCF7; experiment: Cytotoxicity against human MCF7 cells assessed as reduction in cell viability incubated for 48 hrs by MTT assay; type: functional, cell-based; conditions: MCF7, 48 h
[17] = tested on: Calu-3; experiment: Cytotoxicity against human Calu-3 cells assessed as reduction in cell viability; type: functional, cell-based
[18] = tested on: MCF7; experiment: Cytotoxicity against human MCF7 cells assessed as reduction in cell viability; type: functional, cell-based
[19] = tested on: HeLa; experiment: Antiproliferative activity against human HeLa cells assessed as reduction in cell viability incubated for 72 hrs by MTT assay; type: functional, cell-based
[20] = tested on: HL-60; experiment: Growth inhibition of human HL-60 cells; type: functional
[21] = tested on: HCT-116; experiment: Cytotoxicity against human HCT-116 cells assessed as reduction in cell growth incubated for 72 hrs by MTT assay; type: functional, cell-based; conditions: HCT-116, 72 h
[22] = tested on: HepG2; experiment: Cytotoxicity against human HepG2 cells assessed as reduction in cell growth incubated for 72 hrs by MTT assay; type: functional, cell-based; conditions: HepG2, 72 h
[23] = tested on: PC-3; experiment: Cytotoxicity against human PC-3 cells assessed as reduction in cell growth incubated for 72 hrs by MTT assay; type: functional, cell-based; conditions: PC-3, 72 h
[24] = tested on: SF-295; experiment: Cytotoxicity against human SF-295 cells assessed as reduction in cell growth incubated for 72 hrs by MTT assay; type: functional, cell-based; conditions: SF-295, 72 h
[25] = tested on: HL-60; experiment: Cytotoxicity against human HL-60 cells assessed as reduction in cell growth incubated for 72 hrs by MTT assay; type: functional, cell-based; conditions: HL-60, 72 h
[26] = tested on: SK-BR-3; experiment: Antiproliferative activity against human SK-BR-3 cells assessed as reduction in cell viability incubated for 24 hrs by alamar blue assay; type: functional, cell-based; conditions: SK-BR-3, 24 h
[27] = tested on: SK-MEL-28; experiment: Cytotoxicity against human SK-MEL-28 cells assessed as reduction in cell growth incubated for 24 hrs by MTT assay; type: functional
[28] = tested on: SK-OV-3; experiment: Antiproliferative activity against human SK-OV-3 cells assessed as reduction in cell viability incubated for 48 hrs by MTT assay; type: functional, cell-based; conditions: SK-OV-3, 48 h
[29] = tested on: A2780; experiment: Antiproliferative activity against human A2780 cells assessed as reduction in cell viability incubated for 48 hrs by MTT assay; type: functional, cell-based; conditions: A2780, 48 h
[30] = tested on: A549; experiment: Cytotoxicity against human A549 cells assessed as reduction in cell growth incubated for 48 hrs by MTT assay; type: functional, cell-based; conditions: A549, 48 h
[31] = biological target: Cytochrome P450 1A1 (Homo sapiens, UniProt P04798); experiment: Inhibition of CYP1A1 (unknown origin) expressed in HEK293 cells; type: ADME, cell-based
Sequence of Cytochrome P450 1A1 (P04798 whole entry): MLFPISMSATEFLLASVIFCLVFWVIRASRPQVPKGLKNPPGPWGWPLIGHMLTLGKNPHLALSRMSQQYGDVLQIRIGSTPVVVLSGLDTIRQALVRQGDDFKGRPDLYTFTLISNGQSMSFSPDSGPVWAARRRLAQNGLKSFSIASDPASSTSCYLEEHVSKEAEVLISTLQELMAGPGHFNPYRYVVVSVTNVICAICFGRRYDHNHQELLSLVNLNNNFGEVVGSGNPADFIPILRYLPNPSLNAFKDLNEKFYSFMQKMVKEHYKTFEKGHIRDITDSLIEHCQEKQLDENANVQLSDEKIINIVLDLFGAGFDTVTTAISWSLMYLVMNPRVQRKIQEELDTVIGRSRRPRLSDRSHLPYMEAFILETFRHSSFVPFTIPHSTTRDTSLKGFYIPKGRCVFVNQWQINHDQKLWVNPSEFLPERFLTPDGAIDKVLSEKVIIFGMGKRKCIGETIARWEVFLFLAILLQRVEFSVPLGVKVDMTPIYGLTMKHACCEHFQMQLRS

[32] = Selectivity index, ratio of IC50 for inhibition of CYP1B1 (unknown origin) to IC50 for inhibition of CYP1A1 (unknown origin)

Structure (SMILES): CCCCCCCCCCCC(=O)O[C@H]1C(C)=C[C@]23C(=O)[C@@H](C=C(CO)[C@@H](O)[C@]12O)[C@H]1[C@@H](C[C@H]3C)C1(C)C
- IC50 [1]: 1.88 µM
- IC50 [2]: 3.58 µM

Structure (SMILES): C/C(=N\NC(=O)c1ccc(O)cc1)c1ccc(NC(=O)Cn2c(=O)c3c(ncn3C)n(C)c2=O)cc1
- IC50 [3]: 0.42 µM
- IC50 [4]: 0.22 µM

Structure (SMILES): C[C@@H]1CC[C@H]2[C@@H](C)C(OC(=O)CCC(=O)O)O[C@@H]3O[C@@]4(C)CC[C@@H]1[C@]32OO4 (single isomer, unassigned)
- IC50 [5]: 43.8 µM

- IC50 [6]: 0.48 µM
Structure (SMILES): CN1CCN(CCCOc2cc(-c3oc4cc(O)cc(O)c4c(=O)c3O)ccc2O)CC1

Structure (SMILES): C[C@H]1CC[C@@H]2[C@@H](OC(=O)[C@]23C[C@H]2CCCN2C32C(=O)c3ccccc3C2=O)[C@]2(C)C(=O)C=C[C@@]12O
- IC50 [7]: 5 µM

- IC50 [9]: 100 µM
Structure (SMILES): CC1(C)CC[C@]2(C(=O)N3CCOCC3)CC[C@]3(C)C(=CC[C@@H]4[C@@]5(C)CC/C(=N\OC(=O)CBr)C(C)(C)[C@@H]5CC[C@]43C)[C@@H]2C1
- IC50 [8]: 100 µM

- IC50 [10]: 0.6 µM
- IC50 [11]: 1.9 µM
- IC50 [12]: 1.4 µM
- IC50 [13]: 0.8 µM
- IC50 [14]: 0.7 µM
Structure (SMILES): COc1c2c(cc3c1OCO3)[C@]13C=C[C@H](OC)C[C@H]1N(C2)C[C@H]3OC(=O)c1ccc(Cl)c([N+](=O)[O-])c1

Structure (SMILES): C/C=C/c1ccc(OCc2ccc(Cl)cc2)c(OC)c1
- inhibition at 100 µM [15]: 87.5%
- IC50 [16]: 6.59 µM

Structure (SMILES): Cn1c2ccccc2c(=O)c2c(OCCCOc3cc4c(c5c3c(=O)c3ccccc3n5C)C=CC(C)(C)O4)cc3c(c21)C=CC(C)(C)O3
- IC50 [17]: 4.49 µM
- IC50 [18]: 13.2 µM

- IC50 [19]: 250 µM
Structure (SMILES): CCNC(=O)CC[C@H](NC(=O)c1cc2cc(Br)ccc2oc1=O)C(=O)OCC

- GI50 [20]: 2.64 µM
Structure (SMILES): COc1cc(/C=C/c2cc(/C=C/c3ccc(O)c(OC)c3)n(-c3c(Cl)cccc3Cl)c(=O)n2)ccc1O

Structure (SMILES): CCC(=O)OCC(=O)[C@@]1(C)CC[C@H]2C(=C[C@@H]3OC(=O)[C@@]4(C)[C@@H]3[C@]23CC[C@]4(O)OC3)C1
- IC50 [21]: 3.62 µM
- IC50 [22]: 13.5 µM
- IC50 [23]: 3.2 µM
- IC50 [24]: 3.59 µM
- IC50 [25]: 3.14 µM

- IC50 [26]: 6.3 µM
Structure (SMILES): COc1ccc2c(CCCc3ccc(Cl)cc3Cl)c3[n+](cc2c1OC)CCc1cc2c(cc1-3)OCO2

Structure (SMILES): CC(=O)OCC1=C2[C@@H](OC(C)=O)C[C@@](C)(OC(C)=O)C(=O)CC[C@@]3(C)O[C@@H]3[C@@]2(OC(C)=O)OC1=O
- CC50 [27]: 3.1 µM

- IC50 [28]: 0.47 µM
- IC50 [29]: 0.87 µM
Structure (SMILES): CC1=C(O)C(=O)C=C2C1=CC=C1[C@@]2(C)CC[C@@]2(C)[C@@H]3C[C@](C)(C(=O)N4CCN(C(C)C)CC4)CC[C@]3(C)CC[C@]12C

Structure (SMILES): COc1ccc(CC(=O)OCC2=CC[C@@H]3[C@](C)(CO)[C@H](O)CC[C@@]3(C)[C@@H]2/C=C/C2=CCOC2=O)cc1
- IC50 [30]: 3.5 µM

- IC50 [31]: 0.14 µM
- Ratio IC50 [32]: 170
Structure (SMILES): COc1c2occc2c(OC)c2c(=O)cc(-c3ccc(F)c(Br)c3)oc12
